Data on three molecules can be found in patent publication US9469659B2, “Compositions and methods for improving glucose uptake” (Board of Supervisors of Louisiana State University and …, priority 2012, dated 2016).

Each structure is given as a SMILES string.

In one series the test system is 3T3-L1 pre adipocytes. Kind of series: Cell toxicity of compounds at various doses. The format is cell-based. The settings on record: 5 μM, Day 1, 3T3-L1 pre adipocytes. How it is done:
For the following screens, compounds 1-5 were dissolved in DMSO. 3T3-L1 pre adipocytes were first exposed to different concentrations (5 μM, 10 μM, 20 μM, 50 μM and 100 μM) of the compounds to test for toxicity compared with DMSO control exposure. Exposure to other concentrations was followed until Day 5. Compound 2 was the most toxic at 20 μM on Day 5.
As for `CC1(C)OB(c2ccc(NC(C#N)c3cc(-c4ccc(F)cc4)on3)cc2)OC1(C)C` (centres unmarked) [Compound 1], the Cell toxicity is on record as 0%.
As to `Cc1cc(C(C#N)Nc2ccc(B3OC(C)(C)C(C)(C)O3)cc2)no1` (centres unmarked) [Compound 3], the Cell toxicity amounted to 0%.
`CC1(C)OB(c2ccc(NC(C#N)c3cc(-c4ccccc4)on3)cc2)OC1(C)C` (centres unmarked) [Compound 2]: the Cell toxicity was 0%.

The same series, now with this note: 5 μM, Day 2, 3T3-L1 pre adipocytes.
Regarding `CC1(C)OB(c2ccc(NC(C#N)c3cc(-c4ccc(F)cc4)on3)cc2)OC1(C)C` (centres unmarked) [Compound 1], the Cell toxicity is 0-5%.
Still for that read-out and setting: the value for `Cc1cc(C(C#N)Nc2ccc(B3OC(C)(C)C(C)(C)O3)cc2)no1` (centres unmarked) [Compound 3] was 0-5%.
The same measure, in the same setting: next, `CC1(C)OB(c2ccc(NC(C#N)c3cc(-c4ccccc4)on3)cc2)OC1(C)C` (centres unmarked) [Compound 2]: 0-5%.

The same series, now with this note: 5 μM, Day 3, 3T3-L1 pre adipocytes.
Take `CC1(C)OB(c2ccc(NC(C#N)c3cc(-c4ccc(F)cc4)on3)cc2)OC1(C)C` (centres unmarked) [Compound 1]: the Cell toxicity is 0-5%.
For the molecule `Cc1cc(C(C#N)Nc2ccc(B3OC(C)(C)C(C)(C)O3)cc2)no1` (centres unmarked) [Compound 3], the Cell toxicity is on record as 0-5%.
For `CC1(C)OB(c2ccc(NC(C#N)c3cc(-c4ccccc4)on3)cc2)OC1(C)C` (centres unmarked) [Compound 2], the Cell toxicity is listed as 0-5%.

Still in this series, the particulars now being: 5 μM, Day 4, 3T3-L1 pre adipocytes.
Regarding `CC1(C)OB(c2ccc(NC(C#N)c3cc(-c4ccc(F)cc4)on3)cc2)OC1(C)C` (centres unmarked) [Compound 1], the Cell toxicity is given as 0-5%.
Turning to `Cc1cc(C(C#N)Nc2ccc(B3OC(C)(C)C(C)(C)O3)cc2)no1` (centres unmarked) [Compound 3], the Cell toxicity was 0-5%.
The same measure, in the same setting: the value for `CC1(C)OB(c2ccc(NC(C#N)c3cc(-c4ccccc4)on3)cc2)OC1(C)C` (centres unmarked) [Compound 2] was 10-20%.

Still in this series, the particulars now being: 5 μM, Day 5, 3T3-L1 pre adipocytes.
Take `CC1(C)OB(c2ccc(NC(C#N)c3cc(-c4ccc(F)cc4)on3)cc2)OC1(C)C` (centres unmarked) [Compound 1]: the Cell toxicity result is listed as “≧5%”.
In the case of `Cc1cc(C(C#N)Nc2ccc(B3OC(C)(C)C(C)(C)O3)cc2)no1` (centres unmarked) [Compound 3], the Cell toxicity is 0-5%.
Take `CC1(C)OB(c2ccc(NC(C#N)c3cc(-c4ccccc4)on3)cc2)OC1(C)C` (centres unmarked) [Compound 2]: the Cell toxicity was 10-20%.

The same series, now with this note: 10 μM, Day 1, 3T3-L1 pre adipocytes.
Regarding `CC1(C)OB(c2ccc(NC(C#N)c3cc(-c4ccc(F)cc4)on3)cc2)OC1(C)C` (centres unmarked) [Compound 1], the Cell toxicity is recorded as 5-10%.
On the same count and under the same terms, next, `Cc1cc(C(C#N)Nc2ccc(B3OC(C)(C)C(C)(C)O3)cc2)no1` (centres unmarked) [Compound 3]: 0-5%; `CC1(C)OB(c2ccc(NC(C#N)c3cc(-c4ccccc4)on3)cc2)OC1(C)C` (centres unmarked) [Compound 2]: 5-10%.

The series is the same for the next values; noted with them: 10 μM, Day 2, 3T3-L1 pre adipocytes.
In the case of `CC1(C)OB(c2ccc(NC(C#N)c3cc(-c4ccc(F)cc4)on3)cc2)OC1(C)C` (centres unmarked) [Compound 1], the Cell toxicity is given as 5-10%.
Still for that read-out and setting: next, `Cc1cc(C(C#N)Nc2ccc(B3OC(C)(C)C(C)(C)O3)cc2)no1` (centres unmarked) [Compound 3]: >5%; `CC1(C)OB(c2ccc(NC(C#N)c3cc(-c4ccccc4)on3)cc2)OC1(C)C` (centres unmarked) [Compound 2]: >10%.

Still in this series, the particulars now being: 10 μM, Day 3, 3T3-L1 pre adipocytes.
With `CC1(C)OB(c2ccc(NC(C#N)c3cc(-c4ccc(F)cc4)on3)cc2)OC1(C)C` (centres unmarked) [Compound 1], the Cell toxicity is recorded as 5-10%.
Turning to `Cc1cc(C(C#N)Nc2ccc(B3OC(C)(C)C(C)(C)O3)cc2)no1` (centres unmarked) [Compound 3], the Cell toxicity result is on record as “≧10%”.
Consider `CC1(C)OB(c2ccc(NC(C#N)c3cc(-c4ccccc4)on3)cc2)OC1(C)C` (centres unmarked) [Compound 2], for which the Cell toxicity entry is “≧10%”.

The same series, now with this note: 10 μM, Day 4, 3T3-L1 pre adipocytes.
`CC1(C)OB(c2ccc(NC(C#N)c3cc(-c4ccc(F)cc4)on3)cc2)OC1(C)C` (centres unmarked) [Compound 1]: the Cell toxicity is on record as 5-10%.
As for `Cc1cc(C(C#N)Nc2ccc(B3OC(C)(C)C(C)(C)O3)cc2)no1` (centres unmarked) [Compound 3], the Cell toxicity entry is recorded as “≧10%”.
Take `CC1(C)OB(c2ccc(NC(C#N)c3cc(-c4ccccc4)on3)cc2)OC1(C)C` (centres unmarked) [Compound 2]: the Cell toxicity is 30-40%.

Staying with this series, now noted: 10 μM, Day 5, 3T3-L1 pre adipocytes.
In the case of `CC1(C)OB(c2ccc(NC(C#N)c3cc(-c4ccc(F)cc4)on3)cc2)OC1(C)C` (centres unmarked) [Compound 1], the Cell toxicity is recorded as 5-10%.
Take `Cc1cc(C(C#N)Nc2ccc(B3OC(C)(C)C(C)(C)O3)cc2)no1` (centres unmarked) [Compound 3]: the Cell toxicity entry was “≧10%”.
Same read-out and setting: next, `CC1(C)OB(c2ccc(NC(C#N)c3cc(-c4ccccc4)on3)cc2)OC1(C)C` (centres unmarked) [Compound 2]: “≧40%”.

Staying with this series, now noted: 20 μM, Day 1, 3T3-L1 pre adipocytes.
For `CC1(C)OB(c2ccc(NC(C#N)c3cc(-c4ccc(F)cc4)on3)cc2)OC1(C)C` (centres unmarked) [Compound 1], the Cell toxicity was 5-10%.
Same read-out and setting: the value for `Cc1cc(C(C#N)Nc2ccc(B3OC(C)(C)C(C)(C)O3)cc2)no1` (centres unmarked) [Compound 3] was 5-10%; that for `CC1(C)OB(c2ccc(NC(C#N)c3cc(-c4ccccc4)on3)cc2)OC1(C)C` (centres unmarked) [Compound 2] was >10%.

The same series, now with this note: 20 μM, Day 2, 3T3-L1 pre adipocytes.
As for `CC1(C)OB(c2ccc(NC(C#N)c3cc(-c4ccc(F)cc4)on3)cc2)OC1(C)C` (centres unmarked) [Compound 1], the Cell toxicity result is given as “≧10%”.
With `Cc1cc(C(C#N)Nc2ccc(B3OC(C)(C)C(C)(C)O3)cc2)no1` (centres unmarked) [Compound 3], the Cell toxicity is on record as 15-20%.
Regarding `CC1(C)OB(c2ccc(NC(C#N)c3cc(-c4ccccc4)on3)cc2)OC1(C)C` (centres unmarked) [Compound 2], the Cell toxicity is listed as 20-30%.

The same series, now with this note: 20 μM, Day 3, 3T3-L1 pre adipocytes.
`CC1(C)OB(c2ccc(NC(C#N)c3cc(-c4ccc(F)cc4)on3)cc2)OC1(C)C` (centres unmarked) [Compound 1]: the Cell toxicity result is recorded as “≧10%”.
The same measure, in the same setting: next, `Cc1cc(C(C#N)Nc2ccc(B3OC(C)(C)C(C)(C)O3)cc2)no1` (centres unmarked) [Compound 3]: >20%; `CC1(C)OB(c2ccc(NC(C#N)c3cc(-c4ccccc4)on3)cc2)OC1(C)C` (centres unmarked) [Compound 2]: 40-50%.

The same series, now with this note: 20 μM, Day 4, 3T3-L1 pre adipocytes.
As for `CC1(C)OB(c2ccc(NC(C#N)c3cc(-c4ccc(F)cc4)on3)cc2)OC1(C)C` (centres unmarked) [Compound 1], the Cell toxicity is 10-15%.
With `Cc1cc(C(C#N)Nc2ccc(B3OC(C)(C)C(C)(C)O3)cc2)no1` (centres unmarked) [Compound 3], the Cell toxicity is recorded as 20-30%.
As for `CC1(C)OB(c2ccc(NC(C#N)c3cc(-c4ccccc4)on3)cc2)OC1(C)C` (centres unmarked) [Compound 2], the Cell toxicity is on record as 60-70%.

Still in this series, the particulars now being: 20 μM, Day 5, 3T3-L1 pre adipocytes.
For the molecule `CC1(C)OB(c2ccc(NC(C#N)c3cc(-c4ccc(F)cc4)on3)cc2)OC1(C)C` (centres unmarked) [Compound 1], the Cell toxicity was 10-15%.
As to `Cc1cc(C(C#N)Nc2ccc(B3OC(C)(C)C(C)(C)O3)cc2)no1` (centres unmarked) [Compound 3], the Cell toxicity result was “≧30%”.
For `CC1(C)OB(c2ccc(NC(C#N)c3cc(-c4ccccc4)on3)cc2)OC1(C)C` (centres unmarked) [Compound 2], the Cell toxicity is 70-80% and the “Toxicity (in words, ranking among compounds)” value is listed as “most toxic”.

Staying with this series, now noted: 50 μM, Day 1, 3T3-L1 pre adipocytes.
As to `CC1(C)OB(c2ccc(NC(C#N)c3cc(-c4ccc(F)cc4)on3)cc2)OC1(C)C` (centres unmarked) [Compound 1], the Cell toxicity was 30-40%.
On to `Cc1cc(C(C#N)Nc2ccc(B3OC(C)(C)C(C)(C)O3)cc2)no1` (centres unmarked) [Compound 3], for which the Cell toxicity was 15-20%.
The same measure, in the same setting: the value for `CC1(C)OB(c2ccc(NC(C#N)c3cc(-c4ccccc4)on3)cc2)OC1(C)C` (centres unmarked) [Compound 2] was 30-40%.

The series is the same for the next values; noted with them: 50 μM, Day 2, 3T3-L1 pre adipocytes.
In the case of `CC1(C)OB(c2ccc(NC(C#N)c3cc(-c4ccc(F)cc4)on3)cc2)OC1(C)C` (centres unmarked) [Compound 1], the Cell toxicity was 90-95%.
Take `Cc1cc(C(C#N)Nc2ccc(B3OC(C)(C)C(C)(C)O3)cc2)no1` (centres unmarked) [Compound 3]: the Cell toxicity is 90-95%.
As to `CC1(C)OB(c2ccc(NC(C#N)c3cc(-c4ccccc4)on3)cc2)OC1(C)C` (centres unmarked) [Compound 2], the Cell toxicity is on record as 95-100%.

Staying with this series, now noted: 100 μM, Day 1, 3T3-L1 pre adipocytes.
For `CC1(C)OB(c2ccc(NC(C#N)c3cc(-c4ccc(F)cc4)on3)cc2)OC1(C)C` (centres unmarked) [Compound 1], the Cell toxicity is >90%.
Regarding `Cc1cc(C(C#N)Nc2ccc(B3OC(C)(C)C(C)(C)O3)cc2)no1` (centres unmarked) [Compound 3], the Cell toxicity is given as 60-70%.
On the same count and under the same terms, the value for `CC1(C)OB(c2ccc(NC(C#N)c3cc(-c4ccccc4)on3)cc2)OC1(C)C` (centres unmarked) [Compound 2] was >90%.

Staying with this series, now noted: 100 μM, Day 2, 3T3-L1 pre adipocytes.
With `CC1(C)OB(c2ccc(NC(C#N)c3cc(-c4ccc(F)cc4)on3)cc2)OC1(C)C` (centres unmarked) [Compound 1], the Cell toxicity is listed as 95-100%.
For the molecule `Cc1cc(C(C#N)Nc2ccc(B3OC(C)(C)C(C)(C)O3)cc2)no1` (centres unmarked) [Compound 3], the Cell toxicity is on record as 95-100%.
For the molecule `CC1(C)OB(c2ccc(NC(C#N)c3cc(-c4ccccc4)on3)cc2)OC1(C)C` (centres unmarked) [Compound 2], the Cell toxicity is on record as 95-100%.

For another series, the system named is 3T3-L1 cells. Kind of series: Glucose uptake under basal and insulin stimulated conditions (FIG. 2). To be noted: 24 hours exposure. The format is cell-based. How it is done: Next, glucose uptake by 3T3-L1 cells exposed to compounds 1-5 was determined at 5 μM concentration. Cells were exposed to compounds 1-5 for 24 hours and exposure to DMSO was used as the control group. 2-Deoxy glucose (2-DG) uptake was determined using the analog compounds without serum starving the cells prior to determining glucose uptake. As indicated in FIG. 1 glucose uptake in 3T3-L1 pre-adipocytes was determined by exposing cells to compounds 1-5 for 24 hours without serum starvation. All compounds show significant increase (p<0.05) in glucose uptake under basal conditions compared with the DMSO treated control cells. To confirm these observations glucose uptake was examined under basal and insulin stimulated conditions with cells exposed to compounds 1-5 for 24 hours.
As for `Cc1cc(C(C#N)Nc2ccc(B3OC(C)(C)C(C)(C)O3)cc2)no1` (centres unmarked) [Compound 3], the “Glucose uptake under basal and insulin stimulated conditions” value is “most significant increase”.
